Measured values reported in US20090028847A1, “MULTIPLE MYELOMA AND AL AMYLOID IMMUNOTHERAPY TARGETING IMMUNOGLOBULIN LIGHT CHAINS AND USES THEREOF” (TRUSTEES OF BOSTON UNIVERSITY, priority 2007, published 2009).

What was measured:
HLA-A2 = HLA-A2 (Homo sapiens, UniProt P04439, D140Y/D185E/D98H/E176V/E277Q/G131W/G231S/I119V/I121R/I166T/I218V/L300P/L318F/N151K/N90K/P208A/P217A/Q86G/Q94H/R138H/R169H/T345S); assay: Cell-based fluorescence peptide/MHC (HLA-A2) binding and stability assay; conditions: for peptide binding to HLA-A2: FIG. 1, fluorescence shift (FL1) in presence vs absence of peptide
Text: The native Ig λ62-10 is shown in panel A, and the heteroclitic Ig λ62-10 is show in panel B, with the shift to the right (filled in curve) in the presence of the compared to their absence (unfilled curve) indicating Ig λ62-10 peptide binding to HLA-A2 (FL1).
The inventors discovered, using Ig light chain sequencing studies with bone marrow aspirates from 264 AL amyloid subjects the relative frequency of light chain subtypes in AL amyloidosis. Selecting the over-represented light chains in AL amyliod subjects, the inventors evaluated the affinity for formation of stable complexes for the HLA-A*0201 (HLA-A2)-binding peptides using three algorithms to predict the stability of peptide-MHC class I complexes. One such subtype (lambda 6; 16% of all AL amyloidosis cases) contains a conserved framework I sequence (lambda 6 (2-10)) predicted to bind stably to HLA-A2. The inventors confirmed this prediction using a standard fluorescence assay. Subsequently, the inventors tested the ability to induce CTL capable of lysing peptide-pulsed or Ig lambda 6-expressing human B cell tumors by immunizing HLA-A2 transgenic, (HHD) mice (Firat et al, 1999) with the lambda 6 (2-10) peptide. The investigators also tested the ability of lambda 6 (2-10) peptide-induced CTL to cross-react with plasma cells expressing a related lambda light chain subtype (lambda 2). Using public web-based algorithms we identified potential immunogenic peptides from a human immunoglobulin light chain (lambda 6) which causes 16-20% of all AL amyloidosis. Culture based assays supported the likelihood that the identified peptide would be immunogenic.

[1] = test system: JY cells transfected with full length λ6 gene; assay: Chromium-release killing assay with CTL from peptide-immunized HHD mice, JY cells transfected with full length λ6 gene; assay type: in vivo; conditions: FIG. 4
Procedure: (§1) Mice: HHD mice on […] background, transgenic for human MHC Class I (α1 and α2 domains from HLAA*0201, α3 domain from […]) and knockout of H2-D^b (mouse MHC Class I).
(§2) Immunizations: 200 μg peptide plus 200 μg HBVc “helper” peptide (to elicit CD4+ T cell help), emulsified in […] Freud's Adjuvant (IFA) is used to immunize the HHD mice subcutaneously in the lower abdominal area.
(§3) Mouse T Cell Culture: Spleens were harvested from the mice and dissociated using sterile frosted glass slides to yield single-cell suspension. Spleenocytes are plated at approximately 1×10^6 cells/ml and 10% FBS supplemented with L-glutamine, non-essential amino acids and β2-mercaptoethanol. Ex vivo cells were stimulated with 10 μg/ml peptide and fed every 2-3 days with medium and 2 ng/ml rIL-2 for 7-10 days.
(§4) Cell Lines: Human cell lines which naturally express the HLAA*0201 allele of MHC Class I are grown in RPMI 1640 and 10% FBS supplemented with L-glutamine. […]
(§5) Killing Assay: Target cell lines are loaded with radioactive sodium chromate (^51Cr) and pulsed with 20 μg/ml peptide or as a negative control peptide, flu matrix protein MP-58. […] Supernatants are harvested from each well and assayed for radioactive chromium indicating release from lysed cells. % specific lysis was determined by subtracting the control minimum release from experimental wells and dividing by maximum-minimum release. […]

[2] = test system: B cell lymphoblastoma (JY) cells pulsed with peptide; assay: Chromium-release killing assay with CTL from peptide-immunized HHD mice, peptide-pulsed JY targets; assay type: ex vivo; conditions: for CTL lysis of peptide-pulsed target cells: T cells of HHD mice immunized with the peptide, not with negative control peptide
Procedure: as §1, §2, §3
Cell Lines: Human cell lines which naturally express the HLAA*0201 allele of MHC Class I are grown in RPMI 1640 and 10% FBS supplemented with L-glutamine. Cell lines include the JY and U66 lymphobastoma cell lines of B cell origin and the T2 cell line of T cell origin.
Killing Assay: Target cell lines are loaded with radioactive sodium chromate (^51Cr) and pulsed with 20 μg/ml peptide or as a negative control peptide, flu matrix protein MP-58. Spleen cells are plated with targets at various effector target ratios and incubated at 37° C., 5% CO2 overnight. Supernatants are harvested from each well and assayed for radioactive chromium indicating release from lysed cells. % specific lysis was determined by subtracting the control minimum release from experimental wells and dividing by maximum-minimum release.
Statistics: Statistical analysis was performed with Statview. Data from killing assays of a minimum of three mice are presented as means ± standard errors (SE). ANOVA was used to determine the statistical significance compared to the negative control peptide.

[3] = test system: Ig λ2-expressing U266 multiple myeloma plasma cells; assay: Chromium-release killing assay with CTL from peptide-immunized HHD mice, U266 targets; assay type: ex vivo; conditions: FIG. 5
Procedure: as §1, §2, §3, §4, §5

[4] = target: T1, HLA-A*0201 (HLA-A2) on cells (human); assay: flow cytometry, HLA-A2 fluorescence (FL1) on cells with and without peptide
T1 construct: whole, on cells; also called MHC Class I

[5] = T cells of HHD mice immunized with the peptide

Molecule: FMLTQPHSV [λ62-10, 9mer from framework 1 of the human lambda 6 immunoglobulin light chain]
- peptide binding to HLA-A2 (HLA-A2): binds to HLA-A2
- CTL lysis of targets transfected with full length λ6 gene [1, 5]: lysed targets transfected with the gene for the full length λ6 protein
- mice that produced a CTL response ([1]; of 16 mice immunized): 13 mice
- CTL lysis of peptide-pulsed target cells [2]: lysed target cells pulsed with the λ6 peptide
- mice that produced a CTL response ([2]; of 24 mice immunized, FIG. 2): 17 mice
- CTL lysis of U266 target cells [3, 5]: lysed U266 target cells pulsed with the λ6 peptide as well as U266 cells not pulsed with a peptide
- mice that produced a CTL response ([3]; of 11 mice immunized): 8 mice

Molecule: SLFPRLYPV (listed as Mus musculus) [mBlimp470-478, native peptide of the murine Blimp-1 protein]
- CTL lysis of peptide-pulsed target cells [2]: lysed target cells pulsed with the native murine Blimp470-478 peptide
- mice that produced a CTL response ([2]; of 12 mice immunized, FIG. 7): 10 mice

Molecule: YLFPRLYPV (listed as Mus musculus) [heteroclitic mBlimp470-478, heteroclitic variant of mBlimp470-478]
- CTL lysis of peptide-pulsed target cells [2]: lysed target cells pulsed with the hc murine Blimp470-478 peptide
- mice that produced a CTL response ([2]; of 10 mice immunized, FIG. 8): 7 mice

Molecule: YMLTQPHSV [het λ62-10, heteroclitic variant of lambda 6(2-10), substitution at position 1]
- peptide binding to HLA-A2 (HLA-A2; listed as YMLTQPHSV (SEQ ID NO: 2)): higher affinity
- peptide binding to HLA-A2 (HLA-A2; listed as heteroclitic Ig λ62-10): binds to HLA-A2
- stability of peptide/MHC complex (HLA-A2; FIG. 9, as early as 2 hours and over at least 24 hours): more stable than the native lambda 6 peptide
- CTL lysis of peptide-pulsed target cells [2]: lysed target cells pulsed with either heteroclitic λ6 peptide or the native λ6 peptide
- mice that produced a CTL response ([2]; of 8 mice immunized, FIG. 3): 7 mice

Molecule: FMLTQPHSV (also called λ62-10; Ig λ62-10) [lambda 6(2-10) peptide]
- binding result [4]: binds

B1: heteroclitic lambda 6(2-10) peptide (peptide)
peptide: YMLTQPHSV
notes: Variant of the native lambda 6(2-10) peptide with one substitution at position 1 of the 9mer; also called het λ62-10; heteroclitic Ig λ62-10
- binding result [4]: binds
